Source: PubChem BioAssay (NCI)
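Exposure lasted 48 hours, with cells grown in 96-well plates and compounds tested at five concentrations. TGI marks complete inhibition of growth.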

Key:
Assay in all cases: DTP human tumour cell line panel, 48 h
SR leukemia = test system: SR leukemia
SK-MEL-5 melanoma = test system: SK-MEL-5 melanoma
SNB-19 CNS = test system: SNB-19 CNS
UACC-257 melanoma = test system: UACC-257 melanoma
CCRF-CEM leukemia = test system: CCRF-CEM leukemia
OVCAR-8 ovarian = test system: OVCAR-8 ovarian
SK-MEL-28 melanoma = test system: SK-MEL-28 melanoma
MDA-N = test system: MDA-N
MALME-3M melanoma = test system: MALME-3M melanoma
A498 renal = test system: A498 renal
LOX IMVI melanoma = test system: LOX IMVI melanoma
HT29 colon = test system: HT29 colon
TK-10 renal = test system: TK-10 renal
NCI-H226 lung = test system: NCI-H226 lung
SN12C renal = test system: SN12C renal
OVCAR-5 ovarian = test system: OVCAR-5 ovarian
CAKI-1 renal = test system: CAKI-1 renal
UACC-62 melanoma = test system: UACC-62 melanoma
BT-549 breast = test system: BT-549 breast
OVCAR-4 ovarian = test system: OVCAR-4 ovarian
PC-3 prostate = test system: PC-3 prostate
786-0 renal = test system: 786-0 renal
T-47D breast = test system: T-47D breast
HCC-2998 colon = test system: HCC-2998 colon
COLO 205 colon = test system: COLO 205 colon
HOP-92 NSCLC = test system: HOP-92 NSCLC
EKVX NSCLC = test system: EKVX NSCLC
RPMI-8226 leukemia = test system: RPMI-8226 leukemia
DU-145 prostate = test system: DU-145 prostate
HL-60(TB) leukemia = test system: HL-60(TB) leukemia
NCI-H522 lung = test system: NCI-H522 lung
SNB-75 CNS = test system: SNB-75 CNS
U251 CNS = test system: U251 CNS
K-562 leukemia = test system: K-562 leukemia
M14 melanoma = test system: M14 melanoma
MDA-MB-231 breast = test system: MDA-MB-231 breast
A549 NSCLC = test system: A549 NSCLC
MOLT-4 leukemia = test system: MOLT-4 leukemia
SF-539 CNS = test system: SF-539 CNS
RXF 393 renal = test system: RXF 393 renal
MCF7 breast = test system: MCF7 breast
SK-MEL-2 melanoma = test system: SK-MEL-2 melanoma
OVCAR-3 ovarian = test system: OVCAR-3 ovarian
HOP-62 NSCLC = test system: HOP-62 NSCLC
UO-31 renal = test system: UO-31 renal
ACHN renal = test system: ACHN renal
KM12 colon = test system: KM12 colon
SF-268 CNS = test system: SF-268 CNS
NCI-H23 lung = test system: NCI-H23 lung
NCI-H460 lung = test system: NCI-H460 lung
HCT-15 colon = test system: HCT-15 colon
SW-620 colon = test system: SW-620 colon
HS 578T breast = test system: HS 578T breast
SF-295 CNS = test system: SF-295 CNS
HCT-116 colon = test system: HCT-116 colon
IGROV1 ovarian = test system: IGROV1 ovarian
SK-OV-3 ovarian = test system: SK-OV-3 ovarian
MDA-MB-435 = test system: MDA-MB-435

Compound: C=C1C(=O)OC2/C=C(/CO)C3(O)CC(O)C(C)(CC(OC(=O)/C(C)=C/C)C12)O3 (configuration not stated)
- TGI (SR leukemia): > 26.1 µM
- TGI (SK-MEL-5 melanoma): 54.6 µM
- TGI (SNB-19 CNS): > 100 µM
- TGI (UACC-257 melanoma): 39 µM
- TGI (CCRF-CEM leukemia): > 24.6 µM
- TGI (OVCAR-8 ovarian): 45.2 µM
- TGI (SK-MEL-28 melanoma): 49.5 µM
- TGI (MDA-N): > 61 µM
- TGI (MALME-3M melanoma): 29.8 µM
- TGI (A498 renal): 50.2 µM
- TGI (LOX IMVI melanoma): 25.9 µM
- TGI (HT29 colon): 25 µM
- TGI (TK-10 renal): 32.1 µM
- TGI (NCI-H226 lung): 51.5 µM
- TGI (SN12C renal): 32.9 µM
- TGI (OVCAR-5 ovarian): 63.5 µM
- TGI (CAKI-1 renal): 11.6 µM
- TGI (UACC-62 melanoma): 21 µM
- TGI (BT-549 breast): 18.3 µM
- TGI (OVCAR-4 ovarian): > 62.9 µM
- TGI (PC-3 prostate): 83.9 µM
- TGI (786-0 renal): 52.3 µM
- TGI (T-47D breast): 39.9 µM
- TGI (HCC-2998 colon): 29 µM
- TGI (COLO 205 colon): 14.7 µM
- TGI (HOP-92 NSCLC): 30.6 µM
- TGI (EKVX NSCLC): 48.5 µM
- TGI (RPMI-8226 leukemia): 7.5 µM
- TGI (DU-145 prostate): 41.4 µM
- TGI (HL-60(TB) leukemia): > 23 µM
- TGI (NCI-H522 lung): 7.32 µM
- TGI (SNB-75 CNS): > 100 µM
- TGI (U251 CNS): 48.7 µM
- TGI (K-562 leukemia): > 100 µM
- TGI (M14 melanoma): > 58.3 µM
- TGI (MDA-MB-231 breast): 34.6 µM
- TGI (A549 NSCLC): > 74.6 µM
- TGI (MOLT-4 leukemia): 9.95 µM
- TGI (SF-539 CNS): 61.4 µM
- TGI (RXF 393 renal): 12.6 µM
- TGI (MCF7 breast): 23.9 µM
- TGI (SK-MEL-2 melanoma): > 66.1 µM
- TGI (OVCAR-3 ovarian): > 67.8 µM
- TGI (HOP-62 NSCLC): > 100 µM
- TGI (UO-31 renal): > 67.2 µM
- TGI (ACHN renal): 25 µM
- TGI (KM12 colon): 42 µM
- TGI (SF-268 CNS): > 59.9 µM
- TGI (NCI-H23 lung): 42.9 µM
- TGI (NCI-H460 lung): 48.9 µM
- TGI (HCT-15 colon): 31.6 µM
- TGI (SW-620 colon): 22.3 µM
- TGI (HS 578T breast): > 100 µM
- TGI (SF-295 CNS): > 73 µM
- TGI (HCT-116 colon): > 44.7 µM
- TGI (IGROV1 ovarian): 43.2 µM
- TGI (SK-OV-3 ovarian): > 61.7 µM
- TGI (MDA-MB-435): > 57.1 µM

Compound: CSc1ncnc2c1cnn2Cc1cn(CCCCO)nn1
- TGI (SR leukemia): > 100 µM
- TGI (SK-MEL-5 melanoma): > 100 µM
- TGI (SNB-19 CNS): > 100 µM
- TGI (UACC-257 melanoma): > 100 µM
- TGI (CCRF-CEM leukemia): > 100 µM
- TGI (OVCAR-8 ovarian): > 100 µM
- TGI (SK-MEL-28 melanoma): > 100 µM
- TGI (MDA-N): > 100 µM
- TGI (MALME-3M melanoma): > 100 µM
- TGI (A498 renal): > 100 µM
- TGI (LOX IMVI melanoma): > 100 µM
- TGI (HT29 colon): > 100 µM
- TGI (TK-10 renal): > 100 µM
- TGI (NCI-H226 lung): > 100 µM
- TGI (SN12C renal): > 100 µM
- TGI (OVCAR-5 ovarian): > 100 µM
- TGI (CAKI-1 renal): > 100 µM
- TGI (UACC-62 melanoma): > 100 µM
- TGI (BT-549 breast): > 100 µM
- TGI (OVCAR-4 ovarian): > 100 µM
- TGI (PC-3 prostate): > 100 µM
- TGI (786-0 renal): > 100 µM
- TGI (T-47D breast): > 100 µM
- TGI (HCC-2998 colon): > 100 µM
- TGI (COLO 205 colon): > 100 µM
- TGI (HOP-92 NSCLC): > 100 µM
- TGI (EKVX NSCLC): > 100 µM
- TGI (RPMI-8226 leukemia): > 100 µM
- TGI (DU-145 prostate): > 100 µM
- TGI (NCI-H522 lung): > 100 µM
- TGI (SNB-75 CNS): > 100 µM
- TGI (U251 CNS): > 100 µM
- TGI (K-562 leukemia): > 100 µM
- TGI (M14 melanoma): > 100 µM
- TGI (MDA-MB-231 breast): > 100 µM
- TGI (A549 NSCLC): > 100 µM
- TGI (MOLT-4 leukemia): > 100 µM
- TGI (SF-539 CNS): > 100 µM
- TGI (RXF 393 renal): > 100 µM
- TGI (MCF7 breast): > 100 µM
- TGI (SK-MEL-2 melanoma): > 100 µM
- TGI (OVCAR-3 ovarian): > 100 µM
- TGI (HOP-62 NSCLC): > 100 µM
- TGI (UO-31 renal): > 100 µM
- TGI (ACHN renal): > 100 µM
- TGI (KM12 colon): > 100 µM
- TGI (SF-268 CNS): > 100 µM
- TGI (NCI-H23 lung): > 100 µM
- TGI (NCI-H460 lung): > 100 µM
- TGI (HCT-15 colon): > 100 µM
- TGI (SW-620 colon): > 100 µM
- TGI (HS 578T breast): > 100 µM
- TGI (SF-295 CNS): > 100 µM
- TGI (HCT-116 colon): > 100 µM
- TGI (IGROV1 ovarian): > 100 µM
- TGI (SK-OV-3 ovarian): > 100 µM
- TGI (MDA-MB-435): > 100 µM

Compound: CC(C)c1ccc(/C=C2\N=C(c3ccc([N+](=O)[O-])cc3)OC2=O)cc1
- TGI (SR leukemia): > 100 µM
- TGI (SK-MEL-5 melanoma): > 100 µM
- TGI (SNB-19 CNS): > 100 µM
- TGI (UACC-257 melanoma): > 100 µM
- TGI (CCRF-CEM leukemia): > 100 µM
- TGI (OVCAR-8 ovarian): > 100 µM
- TGI (SK-MEL-28 melanoma): > 100 µM
- TGI (MDA-N): > 100 µM
- TGI (MALME-3M melanoma): > 100 µM
- TGI (A498 renal): > 100 µM
- TGI (LOX IMVI melanoma): > 100 µM
- TGI (HT29 colon): > 100 µM
- TGI (TK-10 renal): > 100 µM
- TGI (NCI-H226 lung): > 100 µM
- TGI (SN12C renal): > 100 µM
- TGI (OVCAR-5 ovarian): > 100 µM
- TGI (CAKI-1 renal): > 100 µM
- TGI (UACC-62 melanoma): > 100 µM
- TGI (BT-549 breast): > 100 µM
- TGI (OVCAR-4 ovarian): > 100 µM
- TGI (PC-3 prostate): > 100 µM
- TGI (786-0 renal): > 100 µM
- TGI (T-47D breast): > 100 µM
- TGI (HCC-2998 colon): > 100 µM
- TGI (COLO 205 colon): > 100 µM
- TGI (HOP-92 NSCLC): > 100 µM
- TGI (EKVX NSCLC): > 100 µM
- TGI (RPMI-8226 leukemia): > 100 µM
- TGI (DU-145 prostate): > 100 µM
- TGI (HL-60(TB) leukemia): > 100 µM
- TGI (NCI-H522 lung): > 100 µM
- TGI (SNB-75 CNS): > 100 µM
- TGI (U251 CNS): > 100 µM
- TGI (K-562 leukemia): > 100 µM
- TGI (M14 melanoma): > 100 µM
- TGI (MDA-MB-231 breast): > 100 µM
- TGI (A549 NSCLC): > 100 µM
- TGI (MOLT-4 leukemia): > 100 µM
- TGI (SF-539 CNS): > 100 µM
- TGI (RXF 393 renal): > 100 µM
- TGI (MCF7 breast): > 100 µM
- TGI (SK-MEL-2 melanoma): > 100 µM
- TGI (OVCAR-3 ovarian): > 100 µM
- TGI (HOP-62 NSCLC): > 100 µM
- TGI (ACHN renal): > 100 µM
- TGI (KM12 colon): > 100 µM
- TGI (SF-268 CNS): > 100 µM
- TGI (NCI-H23 lung): > 100 µM
- TGI (NCI-H460 lung): > 100 µM
- TGI (HCT-15 colon): > 100 µM
- TGI (SW-620 colon): > 100 µM
- TGI (HS 578T breast): > 100 µM
- TGI (SF-295 CNS): > 100 µM
- TGI (HCT-116 colon): > 100 µM
- TGI (IGROV1 ovarian): > 100 µM
- TGI (SK-OV-3 ovarian): > 100 µM
- TGI (MDA-MB-435): > 100 µM
